{"source": "paper PMC9508239", "about": "(Nature Communications, 2022)", "key": {"IR": {"test_system": "IR", "assay": "IR signaling (pY IR, pAKT, pERK) in primary mouse hepatocytes (Fig. S9)", "assay_type": "cell-based", "procedure": "Primary hepatocytes were isolated from 2-month-old male mice with a standard two-step collagenase perfusion procedure as described earlier with some modifications[24],[48],[49]. […] After 1–2 s upon the appearance of white spots in the liver, we cut the portal vein with scissors to wash out blood, and then the liver was perfused with 30 ml of Liver Digest Medium (Thermo Scientific, Cat. #17703034). The dissected liver was gently washed with low-glucose DMEM and transferred to a sterile culture dish containing 15 ml Liver Digest Medium. The isolated liver cells were filtered through the 70 μm cell strainer into a 50 ml tube. After centrifuging at 50×g for 5 min at 4 °C, cells were washed with cold low-glucose DMEM three times. […] After 2 h, the medium was changed to serum-free low-glucose DMEM.\n(§1) The cells were incubated with the lysis buffer B [50 mM Hepes pH 7.4, 150 mM NaCl, 10% Glycerol, 1% Triton X-100, 1 mM EDTA, 100 mM sodium fluoride, 2 mM sodium orthovanadate, 20 mM sodium pyrophosphate, 0.5 mM dithiothreitol (DTT), 2 mM phenylmethylsulfonyl fluoride (PMSF)] supplemented with cOmplete Protease Inhibitor Cocktail (Roche), PhosSTOP (Sigma), and 25 U/ml turbo nuclease (Accelagen) on ice for 1 h. After centrifuging at 20,817×g at 4 °C for 10 min, the concentrations of cell lysate were measured using Micro BCA Protein Assay Kit (Thermo Scientific). About 50–60 μg total proteins were analyzed by SDS-PAGE and quantitative Western blotting. […] For quantitative western blots, anti-rabbit immunoglobulin G (IgG) (H + L) (WB, 1:5000; Dylight 800 conjugates, Cat. #5151) and anti-mouse IgG (H + L) (WB, 1:5000; Dylight 680 conjugates, Cat. #5470) (Cell Signaling) were used as secondary antibodies. […]"}, "endogenous murine IR": {"test_system": "endogenous murine IR", "assay": "IR signaling (pY IR, pAKT, pERK) in GFP MEFs, tamoxifen-inducible IR knockout (Fig. S8)", "assay_type": "cell-based, mouse", "conditions": "tamoxifen treatment, high concentration of insulin", "procedure": "IR^F/F mice (Jackson #006955[71]) were crossed with CAG-CRE/ERT mice (Jackson #004682) to generate IR^F/F; CRE-ERT mice. The IR^F/F; CRE-ERT mice were backcrossed nine generations to C57BL/6 (Jackson #000664). The MEFs from IR^F/F; CRE-ERT mice were isolated as described earlier with some modifications. E14.5 embryos were minced with sterile scalpels and incubated with 0.25% trypsin-EDTA for 10 min at 37 °C and a 5% CO2 incubator. Fresh 0.25% trypsin-EDTA was added. After 10 min incubation, cells were put into fresh DMEM containing supplemented 10% (v/v) FBS, 2 mM L-glutamine, 55 μM β-mercaptoethanol, and 1% penicillin/streptomycin, and then centrifuged at 290×g for 5 min. […]\nThe cells were incubated with the lysis buffer B [50 mM Hepes pH 7.4, 150 mM NaCl, 10% Glycerol, 1% Triton X-100, 1 mM EDTA, 100 mM sodium fluoride, 2 mM sodium orthovanadate, 20 mM sodium pyrophosphate, 0.5 mM dithiothreitol (DTT), 2 mM phenylmethylsulfonyl fluoride (PMSF)] supplemented with cOmplete Protease Inhibitor Cocktail (Roche), PhosSTOP (Sigma), and 25 U/ml turbo nuclease (Accelagen) on ice for 1 h. After centrifuging at 20,817×g at 4 °C for 10 min, the concentrations of cell lysate were measured using Micro BCA Protein Assay Kit (Thermo Scientific). About 50–60 μg total proteins were analyzed by SDS-PAGE and quantitative Western blotting. […]"}, "[1]": {"assay": "Body weight after chronic treatment, before OGTT", "assay_type": "in vivo, mouse", "procedure": "For the oral glucose tolerance test, mice were fasted for 6 h and their blood glucose levels (T = 0) were measured with tail bleeding using a glucometer (AlphaTRAK). After then, glucose (2 g/kg body weight) was administered by oral gavage. Blood glucose levels were measured at the indicated time points after glucose administration. For Fig. S10f, 2 months old male mice were fasted for 14 h. […] One hour later, livers were collected."}, "IR F497A": {"test_system": "IR F497A", "assay": "Auto-phosphorylation of IR in 293FT cells expressing IR F497A", "assay_type": "cell-based, human", "procedure": "(§2) For the activation assay, the short isoform of human IR in pCS2-MYC was used as described previously[20],[49]. Plasmid transfections into 293FT cells were performed with Lipofectamin^TM 2000 (Invitrogen).\nas §1"}, "IR R14W": {"test_system": "IR R14W", "assay": "Auto-phosphorylation of IR in 293FT cells expressing IR R14W", "assay_type": "cell-based, human", "procedure": "as §2, §1"}, "IR N15K": {"test_system": "IR N15K", "assay": "Auto-phosphorylation of IR in 293FT cells expressing IR N15K", "assay_type": "cell-based, human", "procedure": "as §2, §1"}, "IR R14A": {"test_system": "IR R14A", "assay": "Auto-phosphorylation of IR in 293FT cells expressing IR R14A", "assay_type": "cell-based, human", "procedure": "as §2, §1"}, "IR F64A": {"test_system": "IR F64A", "assay": "Auto-phosphorylation of IR in 293FT cells expressing IR F64A", "assay_type": "cell-based, human", "conditions": "10 nM, 10 min", "procedure": "as §2, §1"}}, "note": "Values joined by “and” are separate entries in the source; they are usually repeats but may differ in a detail not shown here. Equal entries are not always repeated.", "data": [{"substance": "insulin: native IR ligand used as comparator; Humulin in the in vivo tests", "values": [{"measurement": "phosphorylation of AKT, primary hepatocytes", "setting": "IR", "value": "increased the levels of pY IR, pAKT, and pERK similarly"}, {"measurement": "phosphorylation of ERK, primary hepatocytes", "setting": "IR", "value": "increased the levels of pY IR, pAKT, and pERK similarly"}, {"measurement": "phosphorylation of IR, primary hepatocytes", "setting": "IR", "value": "increased the levels of pY IR, pAKT, and pERK similarly"}, {"measurement": "downstream signaling through residual IR", "setting": "endogenous murine IR", "value": "could activate downstream signaling"}, {"measurement": "Body weight before OGTT", "setting": "[1]; 50U/kg body weight, i.p., once daily for three days, male C57BL/6J, individual mice, N = 5, listed as Ins, in g (unit assumed)", "value": "19.9 and 21.6"}, {"measurement": "Body weight, significance", "setting": "[1]; 50U/kg once daily for three days, two-tailed Student's t-test", "value": "No significant"}, {"measurement": "IR activation", "setting": "IR F497A", "value": "can be activated by insulin but with lesser efficiency than IR WT"}, {"measurement": "IR activation", "setting": "IR R14W", "value": "reduced insulin-dependent IR activation"}, {"measurement": "IR activation", "setting": "IR N15K", "value": "reduced insulin-dependent IR activation"}, {"measurement": "IR activation", "setting": "IR R14A", "value": "reduced insulin-dependent IR activation"}, {"measurement": "IR activation", "setting": "IR F64A", "value": "defective insulin-dependent activation"}]}]}
